Results on five cell lines are retold here after the supplement of paper PMC10307832.

Common to all, as to experiment: relative viability (nuclei count vs DMSO), 5 days (fraction); higher = more cells survive
Compound in experiment [1]: CCc1c2c(nc3ccc(OC(=O)N4CCC(N5CCCCC5)CC4)cc13)-c1cc3c(c(=O)n1C2)COC(=O)[C@]3(O)CC [Irinotecan] + CC(=O)Nc1cccc(-n2c(=O)n(C3CC3)c(=O)c3c(Nc4ccc(I)cc4F)n(C)c(=O)c(C)c32)c1 [Trametinib] (partner 0.02 µM)
Put shortly: (§1)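 Lung cancer cell lines were seeded in 1536-well plates and dosed by pin tool the next day, with either a single drug or a fixed anchor-drug dose combined with five library-drug doses (not always all listed) spaced in √10 steps. Five days later, one step fixed the cells and stained their nuclei (final 0.05% Triton X-100, 1% formaldehyde, 1 ug/ml Hoechst), and nuclei were counted on 4× images. Relative viability is the nuclei count in treated wells divided by the count in vehicle wells, and each value is the median of duplicate plates.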

Compound in experiment [2]: CC[C@@H](C)CNCC(=O)N1CCC2=C([C@@H]1COC3=CC=CC(=C3)C)C=CS2 [RU-SKI 43] + O=C(c1cc(Cc2n[nH]c(=O)c3ccccc23)ccc1F)N1CCN(C(=O)C2CC2)CC1 [Olaparib] (partner 8 µM)
The gist of the method:
as §1

Compound in experiment [3]: CCc1c2c(nc3ccc(OC(=O)N4CCC(N5CCCCC5)CC4)cc13)-c1cc3c(c(=O)n1C2)COC(=O)[C@]3(O)CC [Irinotecan] + CS(=O)(=O)CCNCc1ccc(-c2ccc3ncnc(Nc4ccc(OCc5cccc(F)c5)c(Cl)c4)c3c2)o1 [Lapatinib] (partner 2 µM)
The gist of the method:
as §1

Compound in experiment [4]: CC[C@@H](C)CNCC(=O)N1CCC2=C([C@@H]1COC3=CC=CC(=C3)C)C=CS2 [RU-SKI 43] + Cc1nc(NC(=O)N2CCC[C@H]2C(N)=O)sc1-c1ccnc(C(C)(C)C(F)(F)F)c1 [Alpelisib] (partner 2 µM)
Put shortly: as §1

As for CAL-12T, the relative viability stood at 0.309 in experiment [1] (first compound 0.6325 µM); 0.292 in experiment [1] (first compound 2 µM); 0.299 in experiment [1] (first compound 6.325 µM); 0.274 in experiment [1] (first compound 20 µM); 0.709 in experiment [2] (first compound 0.1 µM); 0.804 in experiment [2] (first compound 0.3162 µM). For the same cell line, the relative viability in experiment [2] (first compound 1 µM) was found to be 0.855; in experiment [2] (first compound 3.162 µM), 0.666; in experiment [2] (first compound 10 µM) it was 0.698; in experiment [3] (first compound 0.6325 µM), 0.71; in experiment [3] (first compound 2 µM) it was 0.543; in experiment [3] (first compound 6.325 µM), 0.475. Besides, the relative viability in experiment [3] (first compound 20 µM) came out at 0.442; in experiment [4] (first compound 0.1 µM), 1.06; in experiment [4] (first compound 0.3162 µM), 1.53; in experiment [4] (first compound 1 µM) it was 1.44; in experiment [4] (first compound 3.162 µM) it was 1.39; in experiment [4] (first compound 10 µM), 1.25.
For the cell line COR-L23, the relative viability was found to be 0.307 in experiment [1] (first compound 0.6325 µM); 0.41 in experiment [1] (first compound 2 µM); 0.23 in experiment [1] (first compound 6.325 µM); 0.0821 in experiment [1] (first compound 20 µM); 0.333 in experiment [2] (first compound 0.1 µM); 0.403 in experiment [2] (first compound 0.3162 µM). The relative viability in experiment [2] (first compound 1 µM) was 0.377; in experiment [2] (first compound 3.162 µM) it was 0.325; in experiment [2] (first compound 10 µM), 0.359; in experiment [3] (first compound 0.6325 µM) it was 0.383; in experiment [3] (first compound 2 µM) it was 0.378; in experiment [3] (first compound 6.325 µM) it was 0.177. For the same cell line, the relative viability in experiment [3] (first compound 20 µM) was 0.121; in experiment [4] (first compound 0.1 µM), 0.87; in experiment [4] (first compound 0.3162 µM), 0.657; in experiment [4] (first compound 1 µM), 0.725; in experiment [4] (first compound 3.162 µM), 0.757; in experiment [4] (first compound 10 µM), 0.815.
As to COR-L 105, the relative viability came out at 0.432 in experiment [1] (first compound 0.6325 µM); 0.425 in experiment [1] (first compound 2 µM); 0.474 in experiment [1] (first compound 6.325 µM); 0.401 in experiment [1] (first compound 20 µM); 0.658 in experiment [2] (first compound 0.1 µM); 0.57 in experiment [2] (first compound 0.3162 µM). For the same cell line, the relative viability in experiment [2] (first compound 1 µM) turned out to be 0.815; in experiment [2] (first compound 3.162 µM), 0.683; in experiment [2] (first compound 10 µM), 0.603; in experiment [3] (first compound 0.6325 µM), 0.358; in experiment [3] (first compound 2 µM), 0.431; in experiment [3] (first compound 6.325 µM) it was 0.452. For the same cell line, the relative viability in experiment [3] (first compound 20 µM) was determined as 0.272; in experiment [4] (first compound 0.1 µM) it was 0.935; in experiment [4] (first compound 0.3162 µM) it was 0.818; in experiment [4] (first compound 1 µM), 0.931; in experiment [4] (first compound 3.162 µM), 0.916; in experiment [4] (first compound 10 µM), 0.921.
For Calu-6, the relative viability was found to be 0.555 in experiment [2] (first compound 0.1 µM); 0.621 in experiment [2] (first compound 0.3162 µM); 0.622 in experiment [2] (first compound 1 µM); 0.615 in experiment [2] (first compound 3.162 µM); 0.499 in experiment [2] (first compound 10 µM); 0.599 in experiment [3] (first compound 0.6325 µM). In addition, the relative viability in experiment [3] (first compound 2 µM) stood at 0.514; in experiment [3] (first compound 6.325 µM) it was 0.226; in experiment [3] (first compound 20 µM), 0.125; in experiment [4] (first compound 0.1 µM), 0.994; in experiment [4] (first compound 0.3162 µM) it was 1.14; in experiment [4] (first compound 1 µM) it was 0.994. Also, the relative viability in experiment [4] (first compound 3.162 µM) came to 1.03; in experiment [4] (first compound 10 µM), 0.989.
ChaGo-K-1: the relative viability in experiment [1] (first compound 0.6325 µM) was found to be 0.296; in experiment [1] (first compound 2 µM), 0.24; in experiment [1] (first compound 6.325 µM), 0.21; in experiment [1] (first compound 20 µM) it was 0.221; in experiment [2] (first compound 0.1 µM), 0.391; in experiment [2] (first compound 0.3162 µM), 0.446. The relative viability in experiment [2] (first compound 1 µM) came to 0.413; in experiment [2] (first compound 3.162 µM) it was 0.403; in experiment [2] (first compound 10 µM), 0.383.
